From patent US8343990B2, “Substituted cyclopropyl compounds, compositions containing such compounds and methods of treatment” (Merck Sharp & Dohme Corp., priority 2008, dated 2013) come the findings set out here.

The target of the experiment is T1, GPR119 receptor (UniProt Q8TDV5, S309L, species not given).
T1 sequence (Q8TDV5 1-335 S309L): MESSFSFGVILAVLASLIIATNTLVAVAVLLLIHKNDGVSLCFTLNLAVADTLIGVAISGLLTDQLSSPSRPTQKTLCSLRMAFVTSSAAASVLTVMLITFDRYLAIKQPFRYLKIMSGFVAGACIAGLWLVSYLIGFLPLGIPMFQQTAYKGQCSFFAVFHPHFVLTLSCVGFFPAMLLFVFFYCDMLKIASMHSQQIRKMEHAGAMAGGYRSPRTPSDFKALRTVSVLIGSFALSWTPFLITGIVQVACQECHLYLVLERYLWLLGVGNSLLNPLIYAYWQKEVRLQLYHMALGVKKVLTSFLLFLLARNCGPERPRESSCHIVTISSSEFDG
The experiment can be described thus: GPR119 signaling, cyclic AMP (cAMP) homogenous time resolved fluorescence (HTRF) assay. Type of experiment: cell-based. As to conditions: CHO cells with Gα15 and murine GPR119, or HEK293 Flp-In cells with human GPR119 S309L; table does not say which; read-out: Activity: inflection points, denoted as EC50 values (agonist activation of GPR119, cAMP). Summed up:
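Agonist-induced cAMP measured in CHO cells expressing Gα15 plus murine GPR119, or HEK293 Flp-In cells expressing human S309L variant. Suspended cells exposed to compound titration 60 min at room temperature, lysed, HTRF read after 60 min; EC50 and efficacy versus internal agonist from 4-parameter fit.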
In general terms: Time-resolved FRET reads energy transfer from a long-lived donor to a nearby acceptor.

Broadly, the EC50 is the concentration at which the effect is half-maximal. With `Cc1nnc(-c2ccc(OC[C@@H]3C[C@H]3CC3CCN(c4ncc(Cl)cn4)CC3)cc2F)o1` [Ex 109, 5-chloro-2-{4-[((1R,2R)-2-{[3-fluoro-4-(5-methyl-1,3,4-oxadiazol-2-yl)phenoxy]methyl}cyclopropyl)methyl]piperidin-1-yl}pyrimidine], the EC50 lay within 50 to 200 nM.

In the case of `Cc1nnc(-c2ccc(OC[C@H]3C[C@@H]3CC3CCN(c4ncc(Cl)cn4)CC3)cc2F)o1` [Ex 110, 5-chloro-2-{4-[((1S,2S)-2-{[3-fluoro-4-(5-methyl-1,3,4-oxadiazol-2-yl)phenoxy]methyl}cyclopropyl)methyl]piperidin-1-yl}pyrimidine], the EC50 is 10 to 50 nM.

Turning to `NS(=O)(=O)c1ccc(OC[C@H]2C[C@@H]2CC2CCN(c3ncc(Cl)cn3)CC2)cc1` [Ex 112, 4-[((1S,2S)-2-{[1-(5-chloropyrimidin-2-yl)piperidin-4-yl]methyl}cyclopropyl)methoxy]benzenesulfonamide], the 50% effective concentration (EC50) lay within 50 to 200 nM.
